The values that follow come from patent US20260265334A1, “STAPLED PEPTIDES” (THE FLOREY INSTITUTE OF NEUROSCIENCE AND MENTAL HEALTH, priority 2023, published 2026).

Data set [1] addresses T1, RXFP4 (Homo sapiens, UniProt Q8TDU9). The experiment in a line: Eu-R3/I5 competition binding assay in CHO-K1-RXFP4 cells. The arrangement: expressed in transfected cells. The conditions noted are these: for Ki: read-out: Eu-R3/I5 pKi (converted). Here is the method: An Eu-R3/15 competition binding assay in CHO-K1-RXFP4 cells was carried out.
(§1) Competition binding curves for each peptide were performed in triplicate and each experiment was performed independently at least three times. Fluorescent measurements were carried out at excitation of 340 nm and emission of 614 nm on a BMG POLARstar plate reader (BMG Labtech, Melbourne, Australia). Pooled data were presented as mean±S.E.M. of specific binding and are fitted using a one-site binding curve in GraphPad Prism version 8 (GraphPad Inc., San Diego, USA). Statistical analyses were conducted using one-way analysis of variance with uncorrected Fisher's least significant difference (LSD) post-hoc analysis in GraphPad Prism version 9.
(§2) An additional analogue of INSL5 was utilised as a control, INSL5-A13, having an A chain (SEQ ID NO: 9) and a B chain (SEQ ID NO: 10) with a first disulfide bond between Cys 1 of the A chain and Cys 7 of the B chain, and a second disulfide bond between Cys 14 of the A chain and Cys 19 of the B chain:
(§3) Competition binding and cAMP activity assay were conducted by a procedure analogous to that described above for Example 3. The results are shown in FIG. 24 (RXFP3) and FIG. 25 (RXFP4).

For data set [2], the target named is T2, RXFP3 (Homo sapiens, UniProt Q9NSD7).
T2 construct: expressed in transfected cells
T2 sequence (Q9NSD7 1-469): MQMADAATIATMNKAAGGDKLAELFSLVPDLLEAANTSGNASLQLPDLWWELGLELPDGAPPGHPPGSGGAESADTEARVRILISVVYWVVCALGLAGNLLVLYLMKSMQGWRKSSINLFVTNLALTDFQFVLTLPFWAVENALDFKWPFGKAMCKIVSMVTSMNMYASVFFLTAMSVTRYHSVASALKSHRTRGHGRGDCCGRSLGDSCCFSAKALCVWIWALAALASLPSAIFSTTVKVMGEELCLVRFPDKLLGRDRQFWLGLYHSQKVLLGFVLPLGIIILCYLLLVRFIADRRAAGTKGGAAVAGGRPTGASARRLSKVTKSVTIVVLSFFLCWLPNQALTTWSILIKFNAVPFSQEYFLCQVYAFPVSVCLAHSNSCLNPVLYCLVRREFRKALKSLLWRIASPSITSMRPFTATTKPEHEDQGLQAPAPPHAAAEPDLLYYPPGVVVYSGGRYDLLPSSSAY
Nature of the data set: Inhibition of forskolin-induced cAMP activity in CHO-K1-RXFP3 cells (pCRE β-galactosidase reporter). It is filed as cell-based. As to conditions: 5 μM forskolin, 6 hours, Table 2, read-out: cAMP pEC50 (converted). The procedure: Since RXFP3 is coupled to Gi/o proteins, peptides were tested for their ability to activate RXFP3 as measured via their ability to inhibit forskolin-induced cAMP activity in CHO-K1-RXFP3 or CHO-K1-RXFP4 cells transfected with a pCRE (cAMP Response Element) β-galactosidase reporter plasmid (as described in Belgi, A et al., Structure and function relationship of murine insulin-like peptide 5 (INSL5): free C-terminus is essential for RXFP4 receptor binding and activation. Biochemistry 2011, 50 (39), 8352-61; and Haugaard-Kedstrom, L. M et al., Synthesis and pharmacological characterization of a europium-labelled single-chain antagonist for binding studies of the relaxin-3 receptor RXFP3. Amino Acids 2015, 47 (6), 1267-71). For agonist assays, cells were stimulated with forskolin (5 μM for RXFP3, 1 μM for RXFP4)±increasing concentrations of each peptide for 6 hours. Data were expressed as the % forskolin activity, whereby 100% was defined as forskolin alone and 0% as maximum agonist stimulation (1 μM Analogue 2 for RXFP3 and 1 μM Analogue 13 for RXFP4). Data were analysed and plotted using GraphPad Prism 9 and are expressed as the mean±SEM of the pooled data. Statistical analysis was conducted using one-way ANOVA with Uncorrected Fisher's LSD post-hoc analysis using GraphPad Prism 9.
as §3

The target of data set [3] is T2, RXFP3. Nature of the data set: Eu-H3B1-22R competition binding assay in CHO-K1-RXFP3 cells. As to conditions: 5 nM Eu-H3B1-22R, mean ± SEM (n), Table 2, read-out: Eu-H3B1-22R pKi (converted). Here is the method:
An Eu-H3B1-22R competition binding assay was conducted in CHO-K1-RXFP3 cells.
as §1, §3

The target in data set [4] is T1, RXFP4. The experiment in a line: Inhibition of forskolin-induced cAMP activity in CHO-K1-RXFP4 cells (pCRE β-galactosidase reporter). It counts as cell-based. The arrangement: expressed in transfected cells. The conditions noted are these: for cAMP pEC50: RXFP4, CHO-K1-RXFP4 cells, 1 μM forskolin, 6 hours, Table 3. Here is the method: For agonist assays, cells were stimulated with forskolin (5 μM for RXFP3, 1 μM for RXFP4)±increasing concentrations of each peptide for 6 hours. Data were expressed as the % forskolin activity, whereby 100% was defined as forskolin alone and 0% as maximum agonist stimulation (1 μM Analogue 2 for RXFP3 and 1 μM Analogue 13 for RXFP4). Data were analysed and plotted using GraphPad Prism 9 and are expressed as the mean±SEM of the pooled data. Statistical analysis was conducted using one-way ANOVA with Uncorrected Fisher's LSD post-hoc analysis using GraphPad Prism 9.
as §2, §3

In data set [5] the target is T1, RXFP4. Nature of the data set: SmBiT-R3/I5 NanoBiT competition binding assay, HEK-LgBiT-RXFP4 membrane fractions. More on the design: expressed in transfected cells. The conditions noted are these: RXFP4, 2 nM SmBiT-R3/I5; Table 5; read-out: SmBiT R3/I5 pKi (converted). The procedure:
Furthermore, a SmBiT-R3/15 competition binding assay was performed. All peptides were examined for their binding affinity to RXFP4 utilizing a competition NanoLuc® Binary Technology (NanoBiT™) binding assay. Briefly, HEK-LgBiT-RXFP4 crude membrane fractions (25 μg protein) were incubated with 2 nM SmBiT-R3/15 and increasing concentrations of competing peptides in binding buffer (0.5% BSA, 20 mM HEPES pH 7.5, 1.5 mM CaCl2), 50 mM NaCl) in a total of 100 μL in 96-well Optiplates (PerkinElmer, Waltham MA, USA). After 1 hour of shaking at room temperature, 1.25 μM final concentration of coelenterazine 400a was added, and luminescence measurements were recorded using a MicroBeta Microplate Counter (PerkinElmer, Waltham MA, USA). Each concentration-response curve was tested in triplicate, and each experiment was repeated at least three times with data being expressed as the mean±standard error of the mean (S.E.M) % specific.

Data set [6] has as its target RXFP3 (relaxin family peptide receptor 3) on CHO-K1-RXFP3 cells (UniProt Q9NSD7). The experiment in a line: competition with 5 nM Eu-H3B1-22R on CHO-K1-RXFP3 cells.
Data set [7] deals with RXFP3-NLuc (human RXFP3 with Nanoluciferase on the C-terminus) (human) (UniProt Q9NSD7). Nature of the data set: cell-based or functional assay.
The target of data set [8] is RXFP4-NLuc (nanoluciferase-tagged RXFP4) (UniProt Q8TDU9). Nature of the data set: cell-based or functional assay.
Data set [9] addresses RXFP3 (relaxin family peptide receptor 3) on CHO-K1-RXFP3 cells (UniProt Q9NSD7). The experiment in a line: cell-based or functional assay.
Data set [10] concerns the target RXFP4 (relaxin family peptide receptor 4) on CHO-K1-RXFP4 cells (UniProt Q8TDU9). The experiment in a line: cell-based or functional assay.
Data set [11] shares this target. Nature of the data set: competition with 5 nM Eu-DTPA-R3/I5 on CHO-K1-RXFP4 cells.
Data set [12] in a line: In vitro serum stability in human serum at 37° C. The conditions noted are these: serum.
Procedure: Human serum (400 μl) was mixed with 200 μg peptide dissolved in 100 μl of water at 37° C. Eighty (80) μl of sample was removed at various time points (0 min, 30 min, 60 min, 120 min, 240 min, and 480 min), and 160 μl of acetonitrile added to precipitate plasma proteins. The solution was then centrifuged at 12000 rpm for 15 min at 4° C. 200 μl of supernatant was taken and mixed with 240 μl of milli-Q water and each sample analysed by RP-HPLC (2×80 μL injection) by measuring the area under the peak at appropriate retention times compared to the peak area of the peptide at time zero (100%). Data analysis (n=3, duplicate) was performed using a non-linear fit one-phase decay model in GraphPad Prism 9.
Setting [13] is: RXFP4, CHO-K1-RXFP4 cells, 5 nM Eu-R3/I5, Table 3.

Square brackets hold non-standard residues; d marks the D form. Ends that are not written are not given here. Peptide text beside a SMILES is read from it. ξ: configuration not given here. αMeF = C[C@](N)(Cc1ccccc1)C(=O)O; ξF = NC(Cc1ccccc1)C(=O)O

T1 sequence (Q8TDU9 whole entry): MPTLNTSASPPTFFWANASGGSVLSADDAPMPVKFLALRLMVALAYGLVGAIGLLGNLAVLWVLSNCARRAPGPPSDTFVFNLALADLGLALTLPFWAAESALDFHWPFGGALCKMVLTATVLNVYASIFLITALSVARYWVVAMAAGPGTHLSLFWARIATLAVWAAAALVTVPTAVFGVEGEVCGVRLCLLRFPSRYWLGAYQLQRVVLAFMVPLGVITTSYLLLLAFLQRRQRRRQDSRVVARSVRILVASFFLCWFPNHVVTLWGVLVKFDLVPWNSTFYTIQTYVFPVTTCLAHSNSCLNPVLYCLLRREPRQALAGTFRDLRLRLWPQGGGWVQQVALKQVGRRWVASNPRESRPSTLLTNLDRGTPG
Sequence of RXFP4 (relaxin family peptide receptor 4) on CHO-K1-RXFP4 cells (Q8TDU9 whole entry): as above
Sequence of RXFP4-NLuc (nanoluciferase-tagged RXFP4) (Q8TDU9 whole entry): as above

Take `CC[C@H](C)[C@H](NC(=O)[C@H](Cc1ccccc1)NC(=O)C(Cc1ccccc1)NC(=O)[C@H](CCCNC(=N)N)NC(=O)CNC(=O)[C@@H](N)CO)C(=O)N[C@@H](CCCNC(=N)N)C(=O)NC(Cc1ccccc1)C(=O)N[C@H](C(=O)N[C@H](C(=O)N[C@@H](Cc1ccccc1)C(=O)N[C@H](C(=O)N[C@@H](CO)C(=O)NCC(=O)NCC(=O)N[C@@H](CO)C(=O)N[C@@H](CCCNC(=N)N)C(=O)N[C@@H](Cc1c[nH]c2ccccc12)C(=O)O)[C@@H](C)O)[C@@H](C)CC)C(C)C` (stereo partly drawn) [H3B10-27(13/17F)] (H-SGR[ξF]FIR[ξF]VIFTSGGSRW-OH; N-terminus assumed): the “Eu-R3/I5 pKi” value at RXFP4 [1] (setting [13]) is recorded as “No binding (3)”. Besides, the EC50 on RXFP3 [2] was over 10000 nM. In addition, the Ki at RXFP3 [3] was over 10000 nM. Also, the “cAMP pEC50” value on RXFP4 [4] was “No activity (4)”.
Consider `CC[C@H](C)[C@H](NC(=O)[C@H](Cc1ccc(O)cc1)NC(=O)[C@@H](NC(=O)[C@@H](NC(=O)[C@](C)(Cc1ccccc1)NC(=O)[C@H](CCCNC(=N)N)NC(=O)[C@@H](NC(=O)[C@H](Cc1ccc(O)cc1)NC(=O)[C@](C)(Cc1ccccc1)NC(=O)[C@H](CC(C)C)NC(=O)CNC(=O)[C@@H](N)CO)[C@@H](C)CC)C(C)C)[C@@H](C)CC)C(=O)N[C@@H](CO)C(=O)NCC(=O)NCC(=O)N[C@@H](CO)C(=O)N[C@@H](CCCNC(=N)N)C(=O)N[C@@H](Cc1c[nH]c2ccccc12)C(=O)O` [aF stapled analogue] (H-SGL[αMeF]YIR[αMeF]VIYISGGSRW-OH), for which the Ki on RXFP4 [1] (RXFP4, Table 5) was 158 nM; at RXFP4 [5], 30.9 nM. The EC50 on RXFP4 [4] (RXFP4, Table 5, read-out: cAMP pEC50 (converted)) was 87.1 nM.
“R3/I5 (R3/I5 chimeric relaxin peptide, RXFP3 agonist) (ligand)”: the pKi in data set [6] turned out to be 7.77; in [11], 8.28. The compound further showed an RXFP3 pEC50 (β-arrestin2 recruitment, NanoBRET AUC) in [7] of 7.91. The compound further displayed an RXFP4 pEC50 (β-arrestin2 recruitment, NanoBRET AUC) in data set [8] of 7.56. The cAMP pEC50 in data set [9] was determined as 8.89; in data set [10], 8.98.
The compound SGREFIRAVIFTSGGSRW-OH [H3B10-27] showed a half-life at 400 µg/mL in data set [12] of about 20 min. Also, the Ki on RXFP4 [1] (setting [13]) and at RXFP3 [3] was over 10000 nM throughout. Also, the EC50 on RXFP3 [2] was over 10000 nM. At RXFP4 [4], the “cAMP pEC50” value is on record as “No activity (3)”.
